assay: recombinant barcode read abundance after kanamycin selection (control-corrected) (log10(CPM+1)); higher = more efficient recombination; sequences stand for … in AGTGCAGAGAAAATCGGCCAGTTTTCTCTGCCTGCAGTCCGCATGCCGT…AGATTTATGCAGCGGACTGCCTTTCTCCCAAAGTGATAAACCGGACAGTATCATGGACCGGTTTTCCCGGTAATCCGTATTTGCAAGGTTGGTTTCACT; site = the 11-nt target
How it was run: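 Targets were screened in pooled form in E. coli against IS621 bridge RNA target-binding loops. Recombination efficiency is based on barcode counts at recombinant junctions in counts per million, averaged and corrected for the control. Numbers are shown as log10(CPM+1), with duplicate plates on chloramphenicol/ampicillin LB agar (control) or chloramphenicol/ampicillin/kanamycin with 0.1 mM IPTG.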
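Note: IS621 recombinase and bridge RNA in Escherichia coli cells.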

Row | Sequence | recombinant barcode read abundance (log10)
1 | TATCCGACTTGGGTTCTAACCTGTTGCCT (site TATCCGACTGG) | 0.0369
2 | TATCCGACTTGGGTTCTAACCTGTTGCCT (site TATCCGACTTG) | 0.0377
3 | TATGACGCTTGGGTTCTAACCTGTTGCCT (site TAAGACGCTAG) | 0.261
4 | TATGACGCTTGGGTTCTAACCTGTTGCCT (site TACGACGCTAG) | 0.124
5 | TATGACGCTTGGGTTCTAACCTGTTGCCT (site TAGGACGCTAG) | 0.00539
6 | TATGACGCTTGGGTTCTAACCTGTTGCCT (site TATGACGCTAG) | 1.12
7 | TATGCGGCTTGGGTTCTAACCTGTTGCCT (site TATGAGGCTAG) | 0
8 | TATGCGGCTTGGGTTCTAACCTGTTGCCT (site TATGCGGCTAG) | 0.34
9 | TATGCGGCTTGGGTTCTAACCTGTTGCCT (site TATGGGGCTAG) | 0.193
10 | TATGCGGCTTGGGTTCTAACCTGTTGCCT (site TATGTGGCTAG) | 0.11
11 | TATTAATCTTGGGTTCTAACCTGTTGCCT (site CATTAGTCTAG) | 0.0101
12 | TATTAATCTTGGGTTCTAACCTGTTGCCT (site TATTAATCTAG) | 0.0472
13 | TATTATACTTGGGTTCTAACCTGTTGCCT (site TATTATACTAA) | 0.00549
14 | TATTATACTTGGGTTCTAACCTGTTGCCT (site TATTATACTAC) | 0.0157
15 | TATTATACTTGGGTTCTAACCTGTTGCCT (site TATTATACTAG) | 0.035
16 | TATTATACTTGGGTTCTAACCTGTTGCCT (site TATTATACTAT) | 0.467
17 | TATTCACCTTGGGTTCTAACCTGTTGCCT (site AATTCACCTAG) | 0.0667
18 | TATTCACCTTGGGTTCTAACCTGTTGCCT (site CATTCACCTAG) | 0.0903
19 | TATTCACCTTGGGTTCTAACCTGTTGCCT (site GATTCACCTAG) | 0.0774
20 | TATTCACCTTGGGTTCTAACCTGTTGCCT (site TATTCACCTAG) | 0.358
21 | TATTCTCCTTGGGTTCTAACCTGTTGCCT (site TATTCTCCTAA) | 0.212
22 | TATTCTCCTTGGGTTCTAACCTGTTGCCT (site TATTCTCCTAC) | 0.0221

Row | Sequence | recombinant barcode read abundance (log10)
23 | TATTCTCCTTGGGTTCTAACCTGTTGCCT (site TATTCTCCTAG) | 0.0657
24 | TATTCTCCTTGGGTTCTAACCTGTTGCCT (site TATTCTCCTAT) | 0.0206
25 | TATTCTCCTTGGGTTCTAACCTGTTGCGT (site TATTCTCCTAA) | 0.0153
26 | TATTCTCCTTGGGTTCTAACCTGTTGCGT (site TATTCTCCTAC) | 0.243
27 | TATTCTCCTTGGGTTCTAACCTGTTGCGT (site TATTCTCCTAG) | 0.12
28 | TATTCTCCTTGGGTTCTAACCTGTTGCGT (site TATTCTCCTAT) | 0.0406
29 | TATTCTCCTTGGGTTCTAACCTGTTGCTT (site TATTCTCCTAA) | 0.266
30 | TATTCTCCTTGGGTTCTAACCTGTTGCTT (site TATTCTCCTAC) | 0.0156
31 | TATTCTCCTTGGGTTCTAACCTGTTGCTT (site TATTCTCCTAG) | 0.0207
32 | TATTCTCCTTGGGTTCTAACCTGTTGCTT (site TATTCTCCTAT) | 0.0253
33 | TATTGGACTTGGGTTCTAACCTGTTGCAG (site TATTGGACTAT) | 0.264
34 | TATTGGACTTGGGTTCTAACCTGTTGCAG (site TATTGGACTCT) | 1.05
35 | TATTGGACTTGGGTTCTAACCTGTTGCAG (site TATTGGACTGT) | 0.0393
36 | TATTGGACTTGGGTTCTAACCTGTTGCAG (site TATTGGACTTT) | 0.14
37 | TATTTAGCTTGGGTTCTAACCTGTTGCGG (site ACCAACACTAA) | 0.0937
38 | TATTTAGCTTGGGTTCTAACCTGTTGCGG (site TATTTAGCTCC) | 0.835
39 | TATTTGCCTTGGGTTCTAACCTGTTGCCT (site TAATTGCCTAG) | 0.0398
40 | TATTTGCCTTGGGTTCTAACCTGTTGCCT (site TACTTGCCTAG) | 0
41 | TATTTGCCTTGGGTTCTAACCTGTTGCCT (site TAGTTGCCTAG) | 0.408
42 | TATTTGCCTTGGGTTCTAACCTGTTGCCT (site TATTTGCCTAG) | 0
43 | TCAATAGCTTGGGTTCTAACCTGTTGCAC (site AAGCCGCCTAA) | 0.204

Reference: the supplement of paper PMC11208160
